Laboratory results from ChEMBL document CHEMBL6182856, “Novel one-/two-photon excited carbazole/quinolinium photosensitizers manifest nanomolar and hypoxia-resistant tumor photodynamic therapy by accelerating apoptosis, ferroptosis, and autophagy” (Eur J Med Chem, 2025).
Active and inactive are the calls of the source. The rule behind the calls is not given here.

Key:
A549 [1] = experiment: Cytotoxicity against human A549 cells assessed as inhibition of cell growth incubated for 24 hrs measured under hypoxia conditions by MTT assay; assay type: functional, cell-based; settings: A549, 24 h
[2] = Photosensitizing ability of the compound assessed as superoxide radical production upon irradiation by DHE probe based assay relative to KNKQ; assay type: functional
[3] = Cytotoxicity against human HFL1 cells assessed as inhibition of cell growth incubated for 24 hrs by MTT assay; assay type: toxicity, cell-based
[4] = Photosensitizing ability of the compound in methanol assessed as singlet oxygen production by measuring quantum yield measured upon irradiation by DPBF based assay; assay type: functional
A549 [5] = experiment: Induction of ferroptosis in human A549 cells assessed as increase in lipid peroxidation by measuring increase in MDA level measured upon irradiation relative to control; assay type: functional
[6] = Drug uptake in human A549 cells assessed as localization in lysosomes by measuring appearance of yellow fluorescence by Hoechst33342/LysoTracker dye based confocal laser scanning microscopic analysis; assay type: ADME, cell-based
A549 [7] = experiment: Induction of apoptosis in human A549 cells assessed as viable cells measured upon light irradiation by AnnexinV-FITC/PI staining based flow cytometric analysis (reference value: 98.4%); assay type: functional
A549 [8] = experiment: Induction of apoptosis in human A549 cells assessed as increase in cleaved caspase-3 expression measured upon light irradiation by western blot analysis relative to control; assay type: functional
A549 [9] = experiment: Induction of autophagy in human A549 cells assessed as increase in active membrane bound form, […] expression measured upon light irradiation by western blot analysis relative to control; assay type: functional
A549 [10] = experiment: (§1) Photosensitizing ability of the compound in human A549 cells assessed as increase in intracellular singlet oxygen generation by measuring increase in fluorescence intensity measured upon light irradiation under normoxia conditions by SOSG probe based fluorescence analysis relative to FLI in cells without irradiation; assay type: functional
[11] = Phototoxicity against human A549 cells assessed as inhibition of cell growth incubated for 24 hrs measured under hypoxia conditions and after two-photon excitation upon irradiation with light at 808 nm, 200 mW/cm2 for 10 mins by MTT assay; assay type: functional, cell-based; settings: A549, light or radiation study
[12] = Phototoxicity against human A549 cells assessed as inhibition of cell growth incubated for 24 hrs measured under normoxia conditions and after two-photon excitation upon irradiation with light at 808 nm, 200 mW/cm2 for 10 mins by MTT assay; assay type: functional, cell-based; settings: A549, light or radiation study
A549 [13] = experiment: Induction of apoptosis in human A549 cells assessed as necrotic cells measured under dark conditions by AnnexinV-FITC/PI staining based flow cytometric analysis (reference value: 0.031%); assay type: functional
[14] = Phototoxicity against human A549 cells assessed as inhibition of cell growth incubated for 24 hrs measured under normoxia conditions and after one-photon excitation upon irradiation with light at 520 nm, 200 mW/cm2 for 10 mins by MTT assay; assay type: functional, cell-based; settings: A549, light or radiation study
A549 [15] = experiment: In vivo photodynamic therapy based antitumor activity against human A549 cells xenografted in mouse assessed as tumor growth inhibition administered intratumorally on day 0 and 7 and measured on day 15; assay type: functional; settings: route it(Intratumoral); time 15 day
A549 [16] = experiment: Induction of apoptosis in human A549 cells assessed as late apoptotic cells measured under dark conditions by AnnexinV-FITC/PI staining based flow cytometric analysis (reference value: 0.17%); assay type: functional
[17] = Photosensitizing ability of the compound in methanol assessed as singlet oxygen production by measuring quantum yield upon irradiation by DPBF based assay relative to KNKQ; assay type: functional
A549 [18] = experiment: Induction of apoptosis in human A549 cells assessed as early apoptotic cells measured upon light irradiation by AnnexinV-FITC/PI staining based flow cytometric analysis (reference value: 0.39%); assay type: functional
A549 [19] = experiment: Induction of apoptosis in human A549 cells assessed as early apoptotic cells measured under dark conditions by AnnexinV-FITC/PI staining based flow cytometric analysis (reference value: 0.12%); assay type: functional
A549 [20] = experiment: Induction of apoptosis in human A549 cells assessed as necrotic cells measured upon light irradiation by AnnexinV-FITC/PI staining based flow cytometric analysis (reference value: 1.04%); assay type: functional
A549 [21] = experiment: Cytotoxicity against human A549 cells assessed as inhibition of cell growth incubated for 24 hrs measured under normoxia conditions by MTT assay; assay type: functional, cell-based; settings: A549, 24 h
A549 [22] = experiment: as §1, with “superoxide” for “singlet oxygen”, “DHE” for “SOSG”; assay type: functional
[23] = Toxicity against mouse xenografted with human A549 cells assessed as changes in biochemical indicators administered intratumorally on day 0 and 7 and measured on day 15; settings: in vivo, other, 360 h, route it(Intratumoral), time 15 day
A549 [24] = experiment: Induction of apoptosis in human A549 cells assessed as increase in Bax expression measured upon light irradiation by western blot analysis relative to control; assay type: functional
[25] = Photosensitizing ability of the compound assessed as hydroxyl radical production measured upon irradiation by electron spin resonance analysis; assay type: functional
A549 [26] = experiment: In vivo photodynamic therapy based antitumor activity against human A549 cells xenografted in mouse assessed as tumor growth inhibition administered intratumorally followed by exposure to light on day 0 and 7 and measured on day 15; assay type: functional; settings: route it(Intratumoral); time 15 day
[27] = Phototoxicity against human A549 cells assessed as inhibition of cell growth incubated for 24 hrs measured under hypoxia conditions and after one-photon excitation upon irradiation with light at 520 nm, 200 mW/cm2 for 10 mins by MTT assay; assay type: functional, cell-based; settings: A549, light or radiation study
[28] = Phototherapeutic index, ratio of IC50 for cytotoxicity against human A549 cells measured under normoxia conditions to IC50 for phototoxicity against human A549 cells measured under normoxia conditions and after one-photon excitation upon irradiation with light at 520 nm, 200 mW/cm2 for 10 mins; assay type: functional
A549 [29] = experiment: as §1, with “ROS” for “singlet oxygen”, “DCFH-DA staining” for “SOSG probe”; assay type: functional
[30] = Toxicity against mouse xenografted with human A549 cells assessed as changes in hematological indicators administered intratumorally followed by exposure to light on day 0 and 7 and measured on day 15; settings: in vivo, other, 360 h, route it(Intratumoral), time 15 day
[31] = Selectivity index, ratio of IC50 for cytotoxicity against human HFL1 cells measured under normoxia conditions to IC50 for phototoxicity against human A549 cells measured under normoxia conditions and after one-photon excitation upon irradiation with light at 520 nm, 200 mW/cm2 for 10 mins; assay type: toxicity, cell-based; settings: HFL1 cells versus A549 cells, read-out: Ratio IC50
[32] = Photosensitizing ability of the compound assessed as hydroxyl radical production upon irradiation by HPF probe based assay relative to control; assay type: functional
[33] = Toxicity against mouse xenografted with human A549 cells assessed as changes in biochemical indicators administered intratumorally followed by exposure to light on day 0 and 7 and measured on day 15; settings: in vivo, other, 360 h, route it(Intratumoral), time 15 day
A549 [34] = experiment: Induction of autophagy in human A549 cells assessed as increase in Beclin-I expression measured upon light irradiation by western blot analysis relative to control; assay type: functional
[35] = Toxicity against mouse xenografted with human A549 cells assessed as changes in body weight administered intratumorally followed by exposure to light on day 0 and 7 and measured for 15 days; settings: in vivo, other, 360 h, route it(Intratumoral), time 15 day
4T1 = experiment: Phototherapeutic index, ratio of IC50 for cytotoxicity against mouse 4T1 cells measured under normoxia conditions to IC50 for phototoxicity against mouse 4T1 cells measured under normoxia conditions and after one-photon excitation upon irradiation with light at 520 nm, 200 mW/cm2 for 10 mins; assay type: functional
A549 [36] = experiment: Induction of DNA damage in human A549 cells assessed as increase in gammaH2AX expression measured upon light irradiation by western blot analysis relative to control; assay type: functional

Work on CCn1c2ccc(/C=C/c3cc[n+](C)c4ccccc34)cc2c2cc(N(c3ccccc3)c3ccccc3)ccc21.[I-] yielded an IC50 (A549 [1]) of 1970 nM, a fold change (FC) [2] of 8 and an IC50 at 24 h [3] of 8910 nM. For the same compound, the Activity [4] was 0.38, the “fold change (FC)” value (A549 [5]) was 10 and the Drug uptake [6] was “Active”. The Activity (A549 [7]) was 7.29%, the “fold change (FC)” value (A549 [8]) was 3 and the “fold change (FC)” value (A549 [9]) was 2. For the same compound, the “fold change (FC)” value (A549 [10]) was 4, the IC50 [11] was 200 nM and the IC50 [12] was 130 nM. The Activity (A549 [13]) was 0.85%, the IC50 [14] was 27 nM and the TGI (A549 [15]) was 70.6%. It also gave an Activity (A549 [16]) of 30.7%, a fold change (FC) [17] of 3 and an Activity (A549 [18]) of 2.36%. For the same compound, the Activity (A549 [19]) was 18.1%, the Activity (A549 [20]) was 2.56% and the IC50 (A549 [21]) was 1470 nM. The “fold change (FC)” value (A549 [22]) was 4, the Activity [23] was “Non-toxic” and the “fold change (FC)” value (A549 [24]) was 5. The Activity [25] was “Active”, the TGI (A549 [26]) was 90.7% and the IC50 [27] was 43 nM. The “Ratio IC50” value [28] was 54, the “fold change (FC)” value (A549 [29]) was 4 and the Activity [30] was “Non-toxic”. For the same compound, the selectivity ratio at 10 min [31] was 330, the fold change (FC) [32] was 60 and the Activity [33] was “Non-toxic”. The “fold change (FC)” value (A549 [34]) was 2, the Activity [35] was “Non-toxic” and the “Ratio IC50” value (4T1) was 21. For the same compound, the “fold change (FC)” value (A549 [36]) was 4.
